According to patent publication US9765026B2, “Forms of apremilast and the process of making the same” (ScinoPharm Taiwan, Ltd., priority 2015, dated 2017):

Experiments:
[1] = Dynamic Vapor Sorption (DVS) analysis of moisture uptake and release; assay type: physicochemical; details: for hygroscopicity (conclusion from DVS): cycling between 0% and 90% RH
Method: Dynamic Vapor Sorption (DVS)
The sample was placed into the DVS sample pan and dried under a stream of dry nitrogen at 25° C. (0% RH). The moisture was gradually introduced into the system with a 10% RH increment up to 90% RH and the humidity was then decreased in a similar trend for desorption phase. The sorption and desorption data were collected with equilibration set to dm/dt 0.004%/min for 5 min/step. The minimum and maximum time for each step were set to 10 and 360 min. Two sorption/desorption cycles were performed.

[2] = Stability at 40° C./75% RH; assay type: physicochemical; details: 40° C./75% RH for 4 weeks
Method: In comparison with the form F disclosed in U.S. Pat. No. 8,093,293, Form 3 and Form 4 in the present disclosure needs less process time to be prepared and is stable even at 40° C./75% RH for 4 weeks.

hygroscopicity (conclusion from DVS) [1]	water content ([1]; RH 90% (FIG. 5B))	weight gained ([1]; at 10% RH (FIG. 12))	change in sample weight ([1]; humidity increased from 10% to 90% RH (FIG. 12))	stability on storage [2]	SMILES	maximum moisture uptake ([1]; cycling between 0% and 90% RH (FIG. 15))
hygroscopic					CCOc1cc([C@@H](CS(C)(=O)=O)N2C(=O)c3cccc(NC(C)=O)c3C2=O)ccc1OC [amorphous apremilast, apremilast]	about 2.5 % of the total mass of the sample
hygroscopic	4.5%				CCOc1cc([C@@H](CS(C)(=O)=O)N2C(=O)c3cccc(NC(C)=O)c3C2=O)ccc1OC [Form II, apremilast]	
non-hygroscopic		about 3.3%	no significant change	stable	CCOc1cc([C@@H](CS(C)(=O)=O)N2C(=O)c3cccc(NC(C)=O)c3C2=O)ccc1OC [Form 4, apremilast]	
				stable	CCOc1cc([C@@H](CS(C)(=O)=O)N2C(=O)c3cccc(NC(C)=O)c3C2=O)ccc1OC [Form 3, apremilast]	
